US9980940B2, “Composition for the treatment of neuropathies and/or neuropathic pain” (Kolinpharma S.p.A., priority 2014, dated 2018)
“Also recorded” adds a separate entry of the source. Where two headings read alike, the source gives them in different places. Each block holds one compound with its values, some of them ahead of it.

Key:
THP-1 human monocytes = conditions: 24 h
Excerpt: (§1) The MTT assay is a colorimetric cytotoxicity assay that makes it possible to test cellular proliferation and vitality based on the efficiency of mitochondrial respiration. MTT (3-(4,5-dimethylthiazol-2-yl)-2,5-diphenyl tetrazolium bromide) is a tetrazolium salt that is reduced by the highly reducing environment in the mitochondria of living cells by the action of mitochondrial dehydrogenase. Reduction of MTT causes formation of crystals of formazan that give the characteristic purple coloration to the mitochondria of living cells. […] Thus, although it is a test that evaluates cellular respiration, the MTT assay is considered to be an excellent method for determining cellular vitality.
(§2) As preparation for the test, the cells were sown uniformly in 96-well plates at a density of 5×10^4 cells per well and incubated at 37° C., with 5% CO2, and simultaneously, the cells were treated following serial dilutions (1:2) in order to identify the maximum non-cytotoxic concentration for each component.
(§3) The treatment was carried out for 24 hours. At the end, after brief washing in PBS, 20 μl of MTT (stock 5 mg/ml) in PBS was added to the THP-1 cells for 2 hours at 37° C. At the end of the incubation time, after removal from the medium and washing in PBS, 100 μl of DMSO was added for solubilization of the formazan crystals. Spectrophotometric reading was performed with a microplate reader (Tecan Sunrise) at a wavelength of 570 nm. The cellular vitality was calculated by measuring the optical density of the concentrations tested relative to the control (untreated cells).
as §1, with “leads to” for “causes”, “impart” for “give”, “regarded as” for “considered to be”
as §2, with “CO2” for “CO2,”, “at the same time” for “simultaneously,”, “with” for “following”
as §3, with “to dissolve” for “for solubilization of”

[1] = system: ROS produced by the THP-1 cells; assay: ROS assay (H2DCF-DA, flow cytometry), Example 2; type: cell-based, human; conditions: 24 h treatment then H2O2 100 μM 2 h; concentrations indicated in Table 7
Procedure: The antioxidant activity of the individual components and synergy between them was evaluated as efficiency of neutralization of the ROS produced by the THP-1 cells after application of an oxidizing agent: hydrogen peroxide (H2O2) at a concentration of 100 μM. The ROS were measured by the method described in Boulton S., Anderson A., Swalwell J., et al., 2011 Implications of using the fluorescent probes, dihydrorhodamine 123 and 2′,7′-dichlorodihydrofluorescein diacetate, for the detection of UV-A induced reactive oxygen species. […] The DCF produced is then quantified by reading with a flow cytometer and is proportional to the quantity of ROS present in the sample under examination. […]
After removal of the H2DCF-DA solution, the cells were washed, collected and the fluorescence of the DCF was measured by analysis with a Coulter Epics XL flow cytofluorimeter. At least ten thousand cells were analysed for each sample and the mean fluorescence intensity was quantified by the XL2 software of the instrument.
The parameter considered is MFI, mean fluorescence intensity, i.e. the geometric mean of the fluorescence intensity of the cells in which H2DCF-DA has been transformed into the fluorescein-treated DCF form, which is proportional to the amount of ROS per sample. […]

IL-1β [2] = assay: ELISA of IL-1β after LPS, Example 3; type: cell-based, human
Procedure: (§4) Possible anti-inflammatory activity of the individual components and synergy between them in THP-1 cells was evaluated after 24 hours of treatment and stimulation with a known pro-inflammatory agent (LPS), measuring expression of IL-1β and TNFα using an ELISA kit (Thermo Fisher Scientific, Inc.).
(§5) As preparation for the test, the THP-1 cells were sown uniformly in a 96-well plate at a density of 5×10^4 cells/well and treated with the maximum concentrations found to be non-cytotoxic in the MTT assay; untreated cells were used as negative control. Treatment was carried out at 37° C. at 5% CO2 for 20 h; then the sample was stimulated with LPS (component of the bacterial outer membrane, considered to be an inflammatory agent) for 4 hours.
(§6) At the end of the treatment, the supernatants were collected and used for coating a pretreated ELISA plate, supplied with the kit.
(§7) For analysis of the expression of both markers under examination (IL-1β and TNFα), a special kit is used that is based on the “sandwich” ELISA system in which a 96-well plate is coated with a monoclonal antibody specific to the particular cytokine.
The standards, prepared on the basis of the instructions in the protocol and used for constructing the calibration curve, and the samples are added to the wells and the cytokine of interest binds the capture antibody immobilized on the bottom of the well. Next, the biotinylated anti-cytokine antibody is added to the wells so that the biotinylated antibody-antigen-antibody “sandwich” is formed. […] Addition of a solution of sulphuric acid turns the colour of the solution from blue to yellow, blocking the reaction and allowing accurate reading of the absorbance of the samples at 450 nm.
The absorbance was then read at 450 and 550 nm using a microplate reader (Tecan Sunrise). The values obtained from the reading at 550 nm were subtracted from those at 450 nm to correct the optical imperfections of the microplate. […]

TNFα [3] = assay: ELISA of TNFα after LPS, Example 3; type: cell-based, human
Procedure: as §4, §5, §6, §7
The standards, prepared on the basis of the instructions in the protocol and used for constructing the calibration curve, and the samples are added to the wells and the cytokine of interest binds the capture antibody immobilized on the bottom of the well. […] Addition of a solution of sulphuric acid turns the colour of the solution from blue to yellow, blocking the reaction and allowing accurate reading of the absorbance of the samples at 450 nm.
The absorbance was then read at 450 and 550 nm using a microplate reader (Tecan Sunrise). The values obtained from the reading at 550 nm were subtracted from those at 450 nm to correct the optical imperfections of the microplate.
The possible anti-inflammatory action of the individual components of Xinepa and the possible synergy were evaluated by measuring the levels of TNFα following stimulation with LPS. […]

[4] = Solubility / dissolution of Xinepa and its ingredients
THP-1 cell line = conditions: curcumin (Sigma, commercial); Hsu et al. 2008; cited from earlier work
THP-1 cells = assay: MTT assay (Assay 0), cellular vitality; type: cell-based, human; conditions: positive controls at 100 μM
Procedure: The cells were kept in an incubator at 37° C. and 5% CO2 and sown every 3-4 days at a density of about 5×10^5 cells/ml.
This colorimetric assay is based on the transformation of tetrazolium salt MTT (yellow) to formazan (violet), by the reductase succinate-tetrazolium system, which belongs to the respiratory chain of the mitochondria and is only active in metabolically active cells. Briefly, the cells grown in a 96-well plate were incubated with the solution of MTT for 4 hours. […] The absorbance measured correlates directly with the number of live cells.
To exclude a possible toxic effect attributable to the incubation protocol selected, cellular vitality was quantified by the MTT assay.

TNFα [5] = assay: ELISA assay (Assay 1a), release of TNFα; type: cell-based, human; conditions: positive controls; LPS 1 μg/ml 2 h
IL-1β [6] = assay: ELISA assay (Assay 1a), release of IL-1β; type: cell-based, human; conditions: positive controls; LPS 1 μg/ml 2 h
[7] = system: reactive oxygen species (ROS) in THP-1 cells; assay: Intracellular levels of ROS (Assay 2), CellROX Deep Red; type: cell-based, human; conditions: positive control; 100 mM H2O2 2 h; not significantly different from its vehicle control
Procedure: The operating principle of the probe is based on the fact that it is not fluorescent in the reduced state, whereas following oxidation it develops a fluorescent signal with excitation peak at 640 nm and emission peak at 665 nm. Briefly, at the end of the period of stimulation with H2O2, the cells were incubated with CellROX® Deep Red Reagent at a final concentration of 5 μM in the medium at 37° C. for 30 min. The nuclei were labelled with Hoechst33342 and the fluorescences of both channels (CellROX® Deep Red and DAPI) were read on the GloMax plate fluorometer (Promega Italy). The fluorescence signals relating to the ROS were normalized for the signal of Hoechst33342 to cancel the variability in the fluorescence signal read due to the number of cells present in each well.
The same plates were then also acquired in the confocal microscope for the purpose of obtaining representative images relating to quantifications of the various treatments.

[8] = 24-hour treatment and stimulation with LPS
[9] = relative to stimulated untreated cells (Ctrl + LPS = 100)

Compound: CC(=O)O[C@H](CC(=O)[O-])C[N+](C)(C)C [Component C]
Cellular vitality (%) (THP-1 human monocytes; N-Acetyl-L-carnitine 0.25 mg/ml): 102.221% | Cellular vitality (%) (THP-1 human monocytes; N-Acetyl-L-carnitine 0.5 mg/ml): 97.615% | Cellular vitality (%) (THP-1 human monocytes; N-Acetyl-L-carnitine 1 mg/ml): 90.355% | Cellular vitality (%) (THP-1 human monocytes; N-Acetyl-L-carnitine 2 mg/ml): 91.422% | Cellular vitality (%) (THP-1 human monocytes; N-Acetyl-L-carnitine 4 mg/ml): 60.848% | Maximum non-cytotoxic concentration (THP-1 human monocytes; components A, B, C tested individually (lipoic acid, vitamin C, vitamin E acetate together as component B), mortality not greater than 30%): 2 mg/mL | Non-cytotoxic concentration (THP-1 human monocytes; each component when tested together (A + B + C)): 0.01 mg/mL | levels of ROS [1]: comparable to those of the positive control | levels of IL-1β vs stimulated control (IL-1β [2]; [8]): increase | IL-1β (IL-1β [2]; 24 h treatment at non-cytotoxic concentrations incl. LPS 4 h, Ctrl + LPS 4.84): 4.98 pg/mL | IL-1β (%) (IL-1β [2]; [9]): 102.91% | levels of TNFα vs stimulated control (TNFα [3]; [8]): levels lower than the stimulated control | TNFα (TNFα [3]; 24 h treatment at non-cytotoxic concentrations, LPS 4 h, Ctrl + LPS 424.12): 386.98 pg/mL | TNFα (%) (TNFα [3]; [9]): 91.24% | dissolution in complete medium ([4]; RPMI medium with 10% FBS, L-glutamine 2 mM and antibiotics): did not cause problems in dissolution; also recorded: did not cause problems of dissolution

Compound: O=C(O)CCCCC1CCSS1 (stereo not drawn) [Lipoic acid, Alpha-lipoic acid]
Maximum non-cytotoxic concentration (THP-1 human monocytes; human): 0.3750 mg/mL

Compound: COc1cc(/C=C/C(=O)CC(=O)/C=C/c2ccc(O)c(OC)c2)ccc1O [curcumin, (1E,6E)-1,7-bis(4-hydroxy-3-methoxyphenyl)-hepta-1,6-diene-3,5-dione]
non-cytotoxic concentration found for curcumin (THP-1 cell line): 10 µM

Compound: CC(C)Cc1ccc(C(C)C(=O)O)cc1 (stereo not shown) [ibuprofen]
toxicity on the cells (MTT) (THP-1 cells): did not identify any effect of toxicity | release of TNFα relative to control (TNFα [5]): did not cause any reduction | release of IL-1β relative to control (IL-1β [6]): did not have any effect

Compound: CS(=O)(=O)Nc1ccc([N+](=O)[O-])cc1Oc1ccccc1 [nimesulide]
toxicity on the cells (MTT) (THP-1 cells): did not identify any effect of toxicity | release of TNFα relative to control (TNFα [5]): showed anti-inflammatory action | release of IL-1β relative to control (IL-1β [6]): effective in reducing the release of IL-1β

solubility of individual ingredients ([4]; water vs alcohols or organic solvents): soluble in water but not in alcohols
Compound: Cc1cc2nc3c(=O)[nH]c(=O)nc-3n(C[C@H](O)[C@H](O)[C@H](O)CO)c2cc1C [vitamin B2, riboflavin]

Compound: tocopherol [vitamin E]
antioxidant action (ROS levels) [7]: partial antioxidant action
